“Also recorded” adds a separate entry of the source. Where a SMILES comes first, the peptide text is derived from it. [ ]: non-standard residue; d: D form. Aib = CC(C)(N)C(=O)O
Tests used:
[1] = tested on: SOD-1 mutant (ALS) transgenic mice; assay: Survival of SOD-1 mutant (ALS) transgenic mice, Kaplan-Meier; type: in vivo
Excerpt: In this series of studies, we examined the effects of SEQ ID NO:5 on mice having a genetic defect (SOD-1) that produces a motor neuron disease similar to that in humans with ALS Animals with this disorder show a progressive loss of motor coordination over time, and ultimately die prematurely of the disease. This animal system is useful in studying effects of agents potentially useful in treating ALS in human beings. Thus, results obtained are highly predictive of results obtained in humans with ALS.
Mice were randomly allocated to receive either vehicle or SEQ ID NO:5 from the point of disease onset onwards.
SEQ ID NO:5 treatment (40 μg/kg, given 1/day, i.p. (FIG. 8A) or 0.4 μg/kg, given 1/day, i.p. (FIG. 8B)) was started at the day of onset of the disease.

cerebellar microexplants = assay: Neuronal survival of cerebellar microexplants exposed to the neurotoxin 3-NP (cells having neurites counted); type: cell-based, Wistar rat; settings: for neuroprotection after exposure to 3-NP, larger set of data: study of 6 in each group, FIG. 4
Method: (§1) Laminated cerebellar cortices of the two hemispheres were explanted from a P3, P4, P7 or P8 Wistar rat, cut into small pieces in GBSS with 0.65% D(+)glucose solution, and triturated by a 0.4 mm gauge needle and subsequently pressed through a 125 μm pore size sieve. The obtained microexplants were centrifuged (60×g) 2 times for a medium exchange into serum-free BSA-supplemented START V-medium (Biochrom). Finally, the microexplants were reconstituted in 500 μl STARTV-medium. For culturing, 38 μl of the cell suspension was incubated for 1 hour on a poly-D-lysine-coated cover slip in a 35 mm Petri dish under an atmosphere comprising 5% CO2 in air and 100% humidity at 34° C. Subsequently, the injuring toxins (as described below), NRP analogues and 1 ml of STARTV-medium were added, and the cultures were evaluated after 2-3 days of culture.
(§2) General methods for toxicological and drug administration experiments were designed such that 1/100 parts of toxin and neuroprotective drug were administered simultaneously to the freshly prepared cerebellar microexplants. Glutamate was prepared as a 50 mM stock solution in MilliQ water while 50 mM 3-nitropropionic acid (3-NP) was pH-adjusted (pH 6.8-7.2) in MilliQ water. The concentrations of the oxidative stress inducing toxin, 3-nitropropionic acid (3-NP), and the excitotoxin, glutamate, in the assay were at concentrations of 0.5 mM each. Lyophilized NRP peptides were reconstituted in PBS or 100 μg/ml human transferrin as a 10 μM stock solution. Subsequently, serial dilutions were made. Cerebellar microexplants were cultivated for 48-72 hours at 34° C., 5% CO2 in air and 100% humidity before they were fixed by increasing amounts of paraformaldehyde (0.4%, 1.2%, 3% and 4%—each treatment 2-3 min).
Using the toxins described above, cerebellar explants were exposed for 24 hours, at the beginning of culturing to dilutions of NRP (survival assay) or NRP and 0.1 μM BrdU (proliferation assay). Subsequently, 80% of the medium was changed without addition of new toxins and NRPs. The cerebellar cultures were fixed as described above after 3 days in vitro. The detection of the incorporated BrdU level is performed as described previously.
For statistical analysis of survival, four fields (each field having an area of 0.65 mm^2) of each fixed cerebellar culture with the highest cell densities were chosen, and cells displaying neurite outgrowth were counted (survival assay).
We exposed cell cultures to vehicle alone (open column) the neurotoxin 3-NP alone (shaded column) to 3-NP plus different concentrations of SEQ ID NO:5 (hatched columns) or to 3-NP plus different concentrations of a non-substituted NRP, SEQ ID NO:1 (dark shaded column). We then counted the numbers of cells having neurites as an indicator of neuronal cell survival.

[2] = tested on: rats with peripheral neuropathy induced by pyridoxine; assay: Pyridoxine-induced peripheral neuropathy, precision beam walk motor deficit score; type: in vivo; settings: for motor deficits (beam walking score) versus vehicle: Experiment I: pyridoxine 800 mg/kg/day 8 days, four days after cessation of pyridoxine
Method: Male Sprague-Dawley rats were used and were weighed 278-349 g at the commencement of intoxication with pyridoxine chloride. Before intoxication, rats were habituated to walk across a beam at daily intervals for a week.
Experiment I: Rats were administered 400 mg/kg pyridoxine chloride dissolved in sterile distilled water adjusted to neutral pH intraperitoneally (i.p) twice daily for 8 days and concurrently the peptide having the sequence SEQ ID NO:5 was administered i.p. for at total of 10 days.
Experiment II: Rats were administered a higher dose of pyridoxine (1200 mg/kg/day) over a shorter period of time. Pyridoxine chloride dissolved in sterile distilled water adjusted to neutral pH was administered i.p. to the rats at a dose of 600 mg/kg twice daily for 4 days. Concurrently the peptide having the sequence SEQ ID NO:5 was administered for 4 days. On day 5, rats were tested for motor deficits.
Motor deficits after pyridoxine intoxication and effects of SEQ ID NO:5 were analyzed using a precision beam walk. Seven subsequent foot steps across the 1.5 m long beam were videotaped and according to the positioning of the foot tarsus, these steps were scored between 1 to 4 (1—hind leg tarsus above the beam median; 2—tarsus was touching the upper half of beam medium; 3-tarsus was touching the lower half of beam median and 4—tarsus below the beam median). The score results of all seven steps were added together. A score of 30 was given if the animal was only able to stand on the beam but was unable to walk. In the event of inability to stand on the beam a score of 32 was awarded.
Experiment I: The two concentrations tested for SEQ ID NO:5 were 40 ng/kg/day and 4 μg/kg/day.
Experiment II: Saline and SEQ ID NO:5 at a dose of 4 μg/kg/day were tested.
Motor deficit data were assessed by two-way analysis of variance and Bonferroni post-hoc test. Statistical significance was concluded if p<0.05 between drug treatment cohorts and vehicle treatment.

cerebellar explants = assay: Storage stability: peptide stored 9 weeks at −20° C. or −4° C., then tested for neuroprotection against 3-NP in cerebellar explants; type: cell-based, Wistar rat; settings: for stability in storage (retention of neuroprotective activity): 9 weeks, −4° C. compared with −20° C.; for neuroprotective effect against 3-NP after storage at −4° C.: stored 9 weeks at −4° C.; for neuroprotective effect against 3-NP after storage at −4° C. / neuroprotective effect against 3-NP after storage at −20° C.: four concentrations 10^−13 M to 10^−10 M; for neuroprotective effect against 3-NP after storage at −20° C.: stored 9 weeks at −20° C.
Method: as §1, §2
To determine the stability of NRPs of this invention in storage, we carried out a series of studies using SEQ ID NO:1. In this study, we synthesized SEQ ID NO:1 and then stored the peptide at temperatures of either −20° C. or −4° C. for nine (9) weeks. We then tested the NRP for efficacy in protecting cerebellar neurons against the neurotoxic effect of 3-NP as described above. Cerebellar explants were treated with vehicle alone (open column), the neurotoxic agent 3-NP alone (light stippled column), or 3-NP plus four concentrations of SEQ ID NO:1 that had been stored for 9 weeks at −20° C., or at −4° C.
In this study, we determined the stability of a substituted NRP, SEQ ID NO:5, in different storage conditions and at different concentrations as with Example 3 above. We synthesized SEQ ID NO:5 and then stored the peptide for 9 weeks at a temperature of either −20° C. or −4° C. We then tested the efficacy of SEQ ID NO:5 in decreasing the neurotoxic effect of 3-NP as described in Examples 2 and 3 above.

[3] = tested on: mouse model of experimental autoimmune encephalitis (EAE); assay: MOG-induced experimental autoimmune encephalitis (EAE) model of multiple sclerosis, clinical score of neurological impairment; type: in vivo, mice, strain C57B1/6J; settings: 0.1 μg peptide/animal (4.16 μg/kg) i.p. daily for 14 days from day 17 after MOG-immunization; outcome 37 days after first treatment; p<0.01 versus treatment day 1 score; FIG. 5

## C[C@H](NC(=O)[C@H](CCCNC(=N)N)NC(=O)[C@H](CCCNC(=N)N)NC(=O)CN)C(=O)N[C@@H](C)C(=O)N1CCC[C@H]1C(=O)NCC(=O)N[C@@H](CCCNC(=N)N)C(=O)NC(C)(C)C(=O)NCC(=O)NCC(N)=O [SEQ ID NO:5, NH2-G^1RRAAPGR-Aib-GG^11-NH2] (H-GRRAAPGR[Aib]GG-NH2)
[1]; Study 1, 40 μg/kg 1/day i.p., vehicle all dead by day 143, FIG. 8A
  longest survival of treated mice: up to 156 days
[1]; Study 1, 40 μg/kg 1/day i.p., vehicle day 120, FIG. 8A, p<0.01
  day at which treated mice began dying: 131 days
[1]; Study 2, 0.4 μg/kg 1/day i.p., vehicle all dead at day 154, FIG. 8B
  longest survival of treated mice: up to 189 days
[1]; Study 2, 0.4 μg/kg 1/day i.p., vehicle day 120, FIG. 8B
  day at which treated mice began to die: 125 days
[1]; two studies, 40 μg/kg or 0.4 μg/kg 1/day i.p. from disease onset, FIGS. 8A and 8B
  lifetime of mice suffering from the ALS-like disorder: significant extension of lifetime
Cerebellar microexplants; 3-NP, FIGS. 1 and 4
  neuroprotection compared with the unsubstituted NRP: more neuroprotective than the unsubstituted NRP
Cerebellar microexplants; FIG. 1, n=4
  concentration of maximal effect on 3-NP-induced neurotoxicity: about 100 fM
  threshold concentration for decrease of 3-NP-induced neurotoxicity: below 1 fM
Cerebellar microexplants; different concentrations, 0.5 mM 3-NP, p<0.001, n=4 each, FIG. 1
  decrease of 3-NP-induced neurotoxicity (cells having neurites): decreased 3-NP-induced neurotoxicity in a concentration dependent fashion
Cerebellar microexplants
  neuroprotection after exposure to 3-NP, larger set of data: protect neurons from dying
[2]; Experiment I: peptide 4 μg/kg/day, day 16 after start of pyridoxine-intoxication, p<0.05, FIG. 6
  motor deficits (beam walking score) versus control group: significantly less motor deficits than the control group
[2]; peptide 40 ng/kg/day i.p. 10 days, p<0.05, FIG. 6
  motor deficits (beam walking score) versus vehicle: attenuated motor deficits
[2]; peptide 4 μg/kg/day i.p. 10 days, p<0.01, FIG. 6
  motor deficits (beam walking score) versus vehicle: attenuated motor deficits
[2]; Experiment II: pyridoxine 1200 mg/kg/day 4 days, peptide 4 μg/kg/day 4 days, day 5, p<0.001, FIG. 7
  motor deficits (beam walking score) versus control group: highly significantly attenuation of motor deficits
[2]; rats, 4 μg/kg/day
  tolerability: well tolerated
Cerebellar explants
  stability in storage (retention of neuroprotective activity): not statistically different; also recorded: stable under storage conditions
  neuroprotective effect against 3-NP after storage at −4° C.: retained its neuroprotective effect
  neuroprotective effect against 3-NP after storage at −20° C.: neuroprotective effects similar to those found for SEQ ID NO:1

## AcNH-RRAAPGRAGG^11-NH2 (Ac-RRAAPGRAGG-NH2) [SEQ ID NO: 7]
Cerebellar microexplants; 3-NP
  neuroprotection in in vitro model of neural toxicity induced by 3-NP: neuroprotective

## H-GR[dR]AAPGRAGG-NH2 [SEQ ID NO: 8]
Cerebellar microexplants; 3-NP
  neuroprotection in in vitro model of neural toxicity induced by 3-NP: neuroprotective

## NH2-G^1RRAAPGRAGG^11-NH2 (H-GRRAAPGRAGG-NH2; listed as Homo sapiens) [SEQ ID NO:1, un-substituted comparator, reference compound]
Cerebellar microexplants; peptide at 10 fM or 1 pM, 0.5 mM 3-NP, p<0.001, n=4, FIG. 1
  decrease of neurotoxic effects of 3-NP (cells having neurites): significantly decreased the neurotoxic effects of 3-NP
Cerebellar microexplants
  neuroprotection after exposure to 3-NP, larger set of data: protect neurons from dying
Cerebellar explants
  stability in storage (retention of neuroprotective activity): loses activity over the 9-week period
  neuroprotective effect against 3-NP after storage at −4° C.: little decrease in neurotoxic effect of 3-NP
  neuroprotective effect against 3-NP after storage at −20° C.: neuroprotective effects at all concentrations tested

## NH2-G^1RRAAPGRANG^11-NH2 (H-GRRAAPGRANG-NH2) [SEQ ID NO: 6]
Cerebellar microexplants; 3-NP
  neuroprotection in in vitro model of neural toxicity induced by 3-NP: neuroprotective

## NH2—REGRRDAPGRAGG-NH2 (H-REGRRDAPGRAGG-NH2) [SEQ ID NO: 12]
[3]
  therapeutic effect on EAE clinical score (severity of motoric impairment): significant therapeutic effect
